# Source: PubChem BioAssay AID330 (DTP/NCI, 2004)
# Where “and” joins values, the source holds several entries; their conditions need not be identical. Identical values can stand only once. Inconclusive results and toxic doses are left out.
# Tested on: P388 leukemia ip, CD2F1 mice, survival T/C
# Assay: NCI In Vivo Anticancer Drug Screen. Data for tumor model P388 Leukemia (intraperitoneal) in CD2F1 (CDF1) mice
# Settings: endpoint: median survival time, higher = longer survival
# Outline: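 Mice carrying the transplanted tumor received test compound or vehicle. Survival was recorded in each group, and the value is the treated-group measurement divided by that of the vehicle-treated control group.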
# [1] = dose: 25.0 mg/kg/injection, schedule: Q04DX003 (ip), vehicle: water
# [2] = dose: 50.0 mg/kg/injection, schedule: Q04DX003 (ip), vehicle: water
# [3] = dose: 100.0 mg/kg/injection, schedule: Q01DX009 (ip), vehicle: saline with Tween-80
# [4] = dose: 50.0 mg/kg/injection, schedule: Q01DX005 (ip), vehicle: saline
# [5] = dose: 100.0 mg/kg/injection, schedule: Q01DX005 (ip), vehicle: saline
# [6] = dose: 25.0 mg/kg/injection, schedule: Q01DX009 (ip), vehicle: saline
# [7] = dose: 100.0 mg/kg/injection, schedule: Q01DX001 (ip), vehicle: saline with Tween-80
# [8] = dose: 200.0 mg/kg/injection, schedule: Q01DX001 (ip), vehicle: saline with Tween-80
# [9] = dose: 400.0 mg/kg/injection, schedule: Q01DX001 (ip), vehicle: saline with Tween-80
smiles,measurement,setting,value
COc1ccc(CC(O)c2cc(OC)c(OC)c(OC)c2)cc1O (stereo unspecified),T/C,"dose: 2.5 mg/kg/injection, schedule: Q01DX009 (ip), vehicle: saline + alcohol",108 % of control
same,T/C,"dose: 5.0 mg/kg/injection, schedule: Q01DX009 (ip), vehicle: saline + alcohol",118 % of control
same,T/C,"dose: 10.0 mg/kg/injection, schedule: Q01DX009 (ip), vehicle: saline + alcohol",114 % of control
same,T/C,"dose: 20.0 mg/kg/injection, schedule: Q01DX009 (ip), vehicle: saline + alcohol",101 % of control
same,T/C,"dose: 22.5 mg/kg/injection, schedule: Q01DX009 (ip), vehicle: saline + Tween-80 + alcohol",108 % of control
same,T/C,"dose: 45.0 mg/kg/injection, schedule: Q01DX009 (ip), vehicle: saline + Tween-80 + alcohol",114 % of control
same,T/C,"dose: 90.0 mg/kg/injection, schedule: Q01DX009 (ip), vehicle: saline + Tween-80 + alcohol",107 % of control
same,T/C,"dose: 180.0 mg/kg/injection, schedule: Q01DX009 (ip), vehicle: saline + Tween-80 + alcohol",123 % of control
O=C(O)c1c[nH]c2cc(OCCOc3ccc4ccccc4c3)ccc2c1=O,T/C,"dose: 100.0 mg/kg/injection, schedule: Q04DX003 (ip), vehicle: saline",99 % of control
same,T/C,"dose: 200.0 mg/kg/injection, schedule: Q04DX003 (ip), vehicle: saline",88 % of control
same,T/C,"dose: 400.0 mg/kg/injection, schedule: Q04DX003 (ip), vehicle: saline",94 % of control
OCC1OC(n2ccn(C3OC(CO)C(O)C3O)c2=S)C(O)C1O (stereo unspecified),T/C,[1],103 % of control
same,T/C,[2],111 % of control
same,T/C,"dose: 100.0 mg/kg/injection, schedule: Q04DX003 (ip), vehicle: water",111 % of control
same,T/C,"dose: 200.0 mg/kg/injection, schedule: Q04DX003 (ip), vehicle: water",112 % of control
same,T/C,"dose: 400.0 mg/kg/injection, schedule: Q04DX003 (ip), vehicle: water",111 % of control
O=S(=O)(CCl)OCCCl,T/C,"dose: 25.0 mg/kg/injection, schedule: Q01DX009 (ip), vehicle: saline with Tween-80",120 % of control
same,T/C,"dose: 75.0 mg/kg/injection, schedule: Q01DX009 (ip), vehicle: saline with Tween-80",170 % of control
same,T/C,[3],218 % of control
O=C/C=C/C1C=Cc2c3c(c(O)c(O)c2C(=O)C1O)OCC=C3 (stereo unspecified),T/C,"dose: 6.0 mg/kg/injection, schedule: Q01DX009 (ip), vehicle: Klucel (hydroxypropylcellulose) (HPC)",94 % of control
same,T/C,"dose: 12.0 mg/kg/injection, schedule: Q01DX009 (ip), vehicle: Klucel (hydroxypropylcellulose) (HPC)",100 % of control
same,T/C,"dose: 24.0 mg/kg/injection, schedule: Q01DX009 (ip), vehicle: Klucel (hydroxypropylcellulose) (HPC)",97 % of control
same,T/C,"dose: 48.0 mg/kg/injection, schedule: Q01DX009 (ip), vehicle: Klucel (hydroxypropylcellulose) (HPC)",104 % of control
CCOC1=N[C@H](C)[C@H](C)N1,T/C,[4],100 % of control
same,T/C,[5],103 % of control
CCc1c(-c2ccccc2)nc(N)nc1-c1nc(N)nc(-c2ccccc2)c1CC,T/C,"dose: 60.0 mg/kg/injection, schedule: Q01DX005 (ip), vehicle: saline",98 % of control
same,T/C,"dose: 120.0 mg/kg/injection, schedule: Q01DX005 (ip), vehicle: saline",100 % of control
CCOC(=O)C(N)(CO)Cc1ccccc1 (stereo unspecified),T/C,[4],103 % of control
same,T/C,[5],100 % of control
same,T/C,"dose: 200.0 mg/kg/injection, schedule: Q01DX005 (ip), vehicle: saline",99 % of control
COc1cccc2c1C(=O)c1c(O)c3c(c(O)c1C2=O)C[C@@](O)(/C=N\O)C[C@@H]3OC1CC(N)C(O)C(C)O1 (stereo partly specified),T/C,"dose: 3.13 mg/kg/injection, schedule: Q04DX003 (ip), vehicle: water",109 % of control
same,T/C,"dose: 6.25 mg/kg/injection, schedule: Q04DX003 (ip), vehicle: water",118 % of control
same,T/C,"dose: 12.5 mg/kg/injection, schedule: Q04DX003 (ip), vehicle: water",116 % of control
same,T/C,[1],111 % of control
same,T/C,[2],163 % of control
CSC(=S)n1nc(-c2ccccc2)c(N=Nc2ccccc2[N+](=O)[O-])c1C,T/C,"dose: 100.0 mg/kg/injection, schedule: Q01DX001 (ip), vehicle: Klucel (hydroxypropylcellulose) (HPC)",98 % of control
same,T/C,"dose: 200.0 mg/kg/injection, schedule: Q01DX001 (ip), vehicle: Klucel (hydroxypropylcellulose) (HPC)",102 % of control
same,T/C,"dose: 400.0 mg/kg/injection, schedule: Q01DX001 (ip), vehicle: Klucel (hydroxypropylcellulose) (HPC)",103 % of control
O=C1CSC(=S)N1c1ccc(Cl)c([N+](=O)[O-])c1,T/C,[6],101 % of control
same,T/C,"dose: 50.0 mg/kg/injection, schedule: Q01DX009 (ip), vehicle: saline",104 % of control and 111 % of control and 92 % of control
same,T/C,"dose: 100.0 mg/kg/injection, schedule: Q01DX009 (ip), vehicle: saline",99 % of control and 100 % of control
same,T/C,"dose: 100.0 mg/kg/injection, schedule: Q01DX009 (ip), vehicle: suspension in saline",117 % of control
same,T/C,"dose: 200.0 mg/kg/injection, schedule: Q01DX009 (ip), vehicle: saline",102 % of control and 108 % of control
same,T/C,"dose: 200.0 mg/kg/injection, schedule: Q01DX009 (ip), vehicle: suspension in saline",86 % of control
COC(=O)c1nnn(-c2ccc(C)c(C)c2)c1N,T/C,"dose: 60.0 mg/kg/injection, schedule: Q01DX005 (ip), vehicle: saline with Tween-80",90 % of control
same,T/C,"dose: 120.0 mg/kg/injection, schedule: Q01DX005 (ip), vehicle: saline with Tween-80",93 % of control
same,T/C,"dose: 240.0 mg/kg/injection, schedule: Q01DX005 (ip), vehicle: saline with Tween-80",94 % of control
COc1ccc(/C=c2\sc3nc(-c4ccccc4)nn3c2=O)cc1,T/C,"dose: 50.0 mg/kg/injection, schedule: Q01DX009 (ip), vehicle: Klucel (hydroxypropylcellulose) (HPC)",98 % of control
same,T/C,"dose: 100.0 mg/kg/injection, schedule: Q01DX009 (ip), vehicle: Klucel (hydroxypropylcellulose) (HPC)",98 % of control
CC1=C(O)c2[nH]c(Cl)c(C=O)c2C(=O)C1=O,T/C,[7],100 % of control
same,T/C,[8],98 % of control
same,T/C,[9],98 % of control
O=C(/C=C/c1ccc(OCc2ccccc2)cc1)c1cccc([N+](=O)[O-])c1,T/C,"dose: 50.0 mg/kg/injection, schedule: Q01DX009 (ip), vehicle: saline + alcohol",100 % of control
same,T/C,"dose: 100.0 mg/kg/injection, schedule: Q01DX009 (ip), vehicle: saline + alcohol",92 % of control
same,T/C,"dose: 200.0 mg/kg/injection, schedule: Q01DX009 (ip), vehicle: saline + alcohol",89 % of control
O=[N+]([O-])c1cnc(-c2ccc(F)cc2)n1CCO,T/C,"dose: 50.0 mg/kg/injection, schedule: Q01DX009 (ip), vehicle: saline with Tween-80",100 % of control
same,T/C,[3],105 % of control
same,T/C,"dose: 200.0 mg/kg/injection, schedule: Q01DX009 (ip), vehicle: saline with Tween-80",112 % of control
N#C[C@H]1C[C@@H](c2ccccc2)N(c2ccccc2)O1,T/C,"dose: 50.0 mg/kg/injection, schedule: Q01DX005 (ip), vehicle: saline + Tween-80 + alcohol",98 % of control
same,T/C,"dose: 100.0 mg/kg/injection, schedule: Q01DX005 (ip), vehicle: saline + Tween-80 + alcohol",100 % of control
same,T/C,"dose: 200.0 mg/kg/injection, schedule: Q01DX005 (ip), vehicle: saline + Tween-80 + alcohol",100 % of control
O=C1C(c2ccccc2)=S=C2C=Cc3ccccc3N12,T/C,[7],109 % of control
same,T/C,[8],111 % of control
same,T/C,[9],116 % of control
C=CCn1cc(F)c(=O)[nH]c1=O,T/C,"dose: 30.0 mg/kg/injection, schedule: Q04DX002 (ip), vehicle: saline",97 % of control
same,T/C,"dose: 60.0 mg/kg/injection, schedule: Q04DX002 (ip), vehicle: saline",100 % of control
same,T/C,"dose: 120.0 mg/kg/injection, schedule: Q04DX002 (ip), vehicle: saline",104 % of control
same,T/C,"dose: 150.0 mg/kg/injection, schedule: Q04DX002 (ip), vehicle: saline",100 % of control
same,T/C,"dose: 240.0 mg/kg/injection, schedule: Q04DX002 (ip), vehicle: saline",99 % of control
same,T/C,"dose: 300.0 mg/kg/injection, schedule: Q04DX002 (ip), vehicle: saline",98 % of control
same,T/C,"dose: 600.0 mg/kg/injection, schedule: Q04DX002 (ip), vehicle: saline",106 % of control
CCCC(C)N(CC)CCNc1cc(OC)cc2cccnc12 (stereo unspecified),T/C,[4],106 % of control
same,T/C,[5],88 % of control
CCOC(=O)/C(=C\c1c(OC(C)=O)cn2c(C)cccc12)C(C)=O,T/C,[7],98 % of control
same,T/C,[8],94 % of control
same,T/C,[9],94 % of control
C[N+]1(CCC(=O)c2ccccc2)CCCCC1,T/C,"dose: 12.5 mg/kg/injection, schedule: Q01DX009 (ip), vehicle: saline",97 % of control
same,T/C,[6],107 % of control
CS(=O)(=O)OCC(F)(F)COS(C)(=O)=O,T/C,"dose: 50.0 mg/kg/injection, schedule: Q01DX005 (ip), vehicle: saline with Tween-80",94 % of control
same,T/C,"dose: 100.0 mg/kg/injection, schedule: Q01DX005 (ip), vehicle: saline with Tween-80",100 % of control
same,T/C,"dose: 200.0 mg/kg/injection, schedule: Q01DX005 (ip), vehicle: saline with Tween-80",99 % of control
